We go through 51 molecules from patent publication US7459444B2, “Inhibitors of chymase” (Janssen Pharmaceutica N.V., priority 2004, dated 2008).

The structures appear in SMILES notation.

For the experiment, the target named is T1, human skin chymase (Homo sapiens, UniProt P23946).
T1 construct: using human skin chymase (Cortex Biochem); purchased Cortex Biochem
T1 sequence (P23946 22-247): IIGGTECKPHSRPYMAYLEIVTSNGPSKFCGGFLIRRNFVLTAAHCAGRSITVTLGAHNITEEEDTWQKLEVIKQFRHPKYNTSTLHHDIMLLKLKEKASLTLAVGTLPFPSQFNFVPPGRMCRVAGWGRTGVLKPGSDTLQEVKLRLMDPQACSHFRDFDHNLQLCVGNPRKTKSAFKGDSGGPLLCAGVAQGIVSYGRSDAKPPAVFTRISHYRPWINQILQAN
The experiment can be described thus: Enzyme-catalyzed hydrolysis assay (chymase inhibition). The note with it: 10 nM enzyme, 0.7 mM Suc-Ala-Ala-Pro-Phe-pNa, pH 8.0, 37° C., 30 minutes. The class given is biochemical. On the procedure: Enzyme-catalyzed hydrolysis rates were measured spectro-photometrically using human skin chymase (Cortex Biochem), a chromogenic substrate (Suc-Ala-Ala-Pro-Phe-pNa) (Bachem) in aqueous buffer (450 mM Tris, 1800 mM NaCl, pH 8.0), and a microplate reader (Molecular Devices). […] Percent inhibition was calculated by comparing the initial reaction slopes of the samples without inhibitor to those with inhibitor. IC50 values were determined using a four parameter fit logistics model. The term “NT” indicates a compound that was not tested.

As to `CN(Cc1cc2ccccc2cc1NC(=O)C(c1cccc2ccccc12)P(=O)(O)O)C1CCN(C(=O)c2ccc3ccccc3c2)CC1` (stereo not drawn) [Cpd 102, {[3-({Methyl-[1-(naphthalene-2-carbonyl)-piperidin-4-yl]-amino}-methyl)-naphthalen-2-ylcarbamoyl]-naphthalen-1-yl-methyl}-phosphonic acid], half-maximal inhibition (IC50) required 3.45 µM.

Turning to `O=C(Nc1ccc2ccccc2c1)C(c1csc2ccc(Cl)cc12)P(=O)(O)CCCc1ccc(O)cc1` (stereo not drawn) [Cpd 43], 0.35 ± 0.07 µM corresponded to half-maximal inhibition (IC50).

Turning to `CP(=O)(O)C(C(=O)N/C=C/c1ccccc1NC(=O)NC(N)=O)c1csc2ccc(Cl)cc12` (stereo not drawn) [Cpd 159], the IC50 – broadly, the concentration at which inhibition is half-maximal – came to 3 ± 0.19 µM.

Regarding `CN(Cc1ccccc1)C(=O)c1cc2ccccc2cc1NC(=O)C(c1cccc2ccccc12)P(=O)(O)O` (stereo not drawn) [Cpd 111], half-maximal inhibition (IC50) was put at 4.62 µM. This IC50 is about 1.5-fold higher than that of the molecule before.

In the case of `CN(CCc1ccccc1)Cc1cc2ccccc2cc1NC(=O)C(c1cccc2ccccc12)P(=O)(O)O` (stereo not drawn) [Cpd 126], the IC50 came to 7 µM.

The molecule `O=C(Nc1ccc2ccccc2c1)C(c1csc2ccc(Cl)cc12)P(=O)(O)CCCc1ccccc1` (stereo not drawn) [Cpd 48] had a half-inhibitory concentration (IC50) of 0.421 ± 0.151 µM.

`CP(=O)(O)C(C(=O)NC=Cc1ccccc1[N+](=O)[O-])c1csc2ccc(Cl)cc12` (stereo not drawn) [Cpd 147] registered an IC50 of 1.44 ± 0.48 µM.

As to `CN(CCCC1c2ccccc2C=Cc2ccccc21)Cc1cc2ccccc2cc1NC(=O)C(c1cccc2ccccc12)P(=O)(O)O` (stereo not drawn) [Cpd 112], the IC50 stood at 4.74 ± 1.65 µM.

For `Cn1cc(C(C(=O)Nc2ccc3ccccc3c2)P(=O)(O)O)c2cccnc21` (stereo not drawn) [Cpd 116], the IC50 turned out to be 5.4 µM.

In turn, `O=C(Nc1cc2ccccc2cc1C(=O)N1CCC(c2ccccc2)CC1)C(c1cccc2ccccc12)P(=O)(O)O` (stereo not drawn) [Cpd 101] had an IC50 of 3.12 µM. This IC50 is about 1.7-fold lower than that of the molecule before.

For `O=C(Nc1ccc2ccccc2c1)C(c1csc2ccc(Cl)cc12)S(=O)(=O)O` (stereo not drawn) [Cpd 50, [(5-Chloro-benzo[b]thiophen-3-yl)-(naphthalen-2-ylcarbamoyl)-methyl]-sulfonic acid], the midpoint of inhibition, the IC50, lay at 0.43 ± 0.15 µM. This IC50 is about 7.3-fold lower than that of the molecule before.

`CP(=O)(O)C(C(=O)NC=Cc1ccccc1NC(N)=O)c1csc2ccc(Cl)cc12` (stereo not drawn) [Cpd 158, {(5-Chloro-benzo[b]thiophen-3-yl)-[2-(2-ureido-phenyl)-vinylcarbamoyl]-methyl}-methyl-phosphinic acid] had an IC50 of 6 ± 1.9 µM.

For the molecule `CP(=O)(O)C(C(=O)N/C=C/c1ccc(F)cc1F)c1csc2ccc(Cl)cc12` (stereo not drawn) [Cpd 171], 0.025 ± 0.01 µM corresponded to half-maximal inhibition (IC50).

Take `O=C(Nc1cc2ccccc2cc1C(=O)N1CCC2(CC1)C(=O)NCN2c1ccccc1)C(c1cccc2ccccc12)P(=O)(O)O` (stereo not drawn) [Cpd 104]: 3.88 ± 2.41 µM corresponded to half-maximal inhibition (IC50). This IC50 lies about 160-fold higher than the previous one.

Turning to `O=C(Nc1cc2ccccc2cc1C(=O)N1CCCC1c1ccccc1)C(c1cccc2ccccc12)P(=O)(O)O` (stereo not drawn) [Cpd 131], the IC50 came to 7.68 µM.

For `Nc1cc2ccccc2cc1NC(=O)C(c1cccc2ccccc12)P(=O)(O)O` (stereo not drawn) [Cpd 132], half-maximal inhibition (IC50) was put at 7.9 µM.

`O=C(NC=Cc1cc(F)cc(F)c1)C(c1csc2ccc(Cl)cc12)P(=O)(O)O` (stereo not drawn) [Cpd 199] came in with an IC50 of 0.0018 µM.

Molecule `CP(=O)(O)C(C(=O)Nc1ccc2ccccc2c1)c1c(C(=O)N2CCC(c3ccccc3)CC2)sc2ccccc12` (stereo not drawn) [Cpd 32, Methyl-{(naphthalen-2-ylcarbamoyl)-[2-(4-phenyl-piperidine-1-carbonyl)-benzo[b]thiophen-3-yl]-methyl}-phosphinic acid] returned an IC50 of 0.21 ± 0.01 µM. This IC50 lies about 120-fold higher than the previous one.

On to `O=C(Nc1cc2ccccc2cc1C(=O)N1CCC(n2c(=O)[nH]c3ccc(Cl)cc32)CC1)C(c1cccc2ccccc12)P(=O)(O)O` (stereo not drawn) [Cpd 60, ({3-[4-(6-Chloro-2-oxo-2,3-dihydro-benzoimidazol-1-yl)-piperidine-1-carbonyl]-naphthalen-2-ylcarbamoyl}-naphthalen-1-yl-methyl)-phosphonic acid], for which half-maximal inhibition (IC50) was put at 0.663 µM.

`O=C(Nc1cc2ccccc2cc1OCC=Cc1ccccc1)C(c1cccc2ccccc12)P(=O)(O)O` (stereo not drawn) [Cpd 121] yielded an IC50 of 5.9 µM. This IC50 is about 8.9-fold higher than that of the molecule before.

As for `CP(=O)(O)C(C(=O)N/C=C/c1ccccc1F)c1csc2ccc(Cl)cc12` (stereo not drawn) [Cpd 21], half-maximal inhibition (IC50) required 0.08 ± 0.02 µM.

Molecule `CP(=O)(O)C(C(=O)Nc1ccc2ccccc2c1)c1c(C(=O)NCc2ccccc2)sc2ccccc12` (stereo not drawn) [Cpd 127] gave an IC50 of 7 ± 1.1 µM.

With `O=C(O)C(C(=O)Nc1ccc2ccccc2c1)c1csc2ccc(Cl)cc12` (stereo not drawn) [Cpd 84, [(5-Chloro-benzo[b]thiophen-3-yl)-(naphthalen-2-ylcarbamoyl)-methyl]-carboxylic acid], inhibition was half-maximal at 1.75 ± 0.285 µM (IC50).

Consider `CC1CCCC(NCc2cc3ccccc3cc2NC(=O)C(c2cccc3ccccc23)P(=O)(O)O)C1` (stereo not drawn) [Cpd 90], for which the IC50 amounted to 2.15 µM.

`O=C(C=Cc1cc2ccccc2cc1NC(=O)C(c1cccc2ccccc12)P(=O)(O)O)NCc1ccccc1` (stereo not drawn) [Cpd 109, {[3-(2-Benzylcarbamoyl-vinyl)-naphthalen-2-ylcarbamoyl]-naphthalen-1-yl-methyl}-phosphonic acid] registered an IC50 of 4.4 µM. This IC50 lies about 2-fold higher than the previous one.

For `O=C(Nc1cc2ccccc2cc1CNC1CCCC1)C(c1cccc2ccccc12)P(=O)(O)O` (stereo not drawn) [Cpd 124], the IC50 worked out at 6.7 µM. This IC50 is about 1.5-fold higher than that of the molecule before.

In the case of `CN(C(=O)c1cc2ccccc2cc1NC(=O)C(c1cccc2ccccc12)P(=O)(O)O)C1CC=C(c2ccccc2)CC1` (stereo not drawn) [Cpd 46, ({3-[Methyl-(4-phenyl-cyclohex-3-enyl)-carbamoyl]-naphthalen-2-ylcarbamoyl}-naphthalen-1-yl-methyl)-phosphonic acid], the IC50 came to 0.388 ± 0.116 µM.

Molecule `O=C(Nc1cc2ccccc2cc1NC(=O)C(c1cccc2ccccc12)P(=O)(O)O)C1CCN(C(=O)c2ccc3ccccc3c2)CC1` (stereo not drawn) [Cpd 141, [(3-{[1-(Naphthalene-2-carbonyl)-piperidine-4-carbonyl]-amino}-naphthalen-2-ylcarbamoyl)-naphthalen-1-yl-methyl]-phosphonic acid] had an IC50 of 9.5 µM.

Consider `COc1ccc(CCCP(=O)(O)C(C(=O)Nc2ccc3ccccc3c2)c2csc3ccc(Cl)cc23)cc1` (stereo not drawn) [Cpd 53], for which the IC50 came out at 0.49 ± 0.16 µM.

As to `O=C(Nc1ccc2sccc2c1)C(c1csc2ccc(Cl)cc12)P(=O)(O)O` (stereo not drawn) [Cpd 55], the IC50 was 0.52 ± 0.51 µM.

Consider `O=P(O)(O)C(C(=S)Nc1ccc2ccccc2c1)c1csc2ccc(Cl)cc12` (stereo not drawn) [Cpd 45, [(5-Chloro-benzo[b]thiophen-3-yl)-(naphthalen-2-ylthiocarbamoyl)-methyl]-phosphonic acid], for which the concentration for half-maximal inhibition (IC50) came out at 0.371 ± 0.11 µM.

In the case of `O=C(Nc1cc2ccccc2cc1CNCCCCCO)C(c1cccc2ccccc12)P(=O)(O)O` (stereo not drawn) [Cpd 133], half-maximal inhibition (IC50) required 8.08 ± 3.15 µM.

For the molecule `O=C(Nc1ccc2ccccc2c1)C(c1csc2cccc(Br)c12)P(=O)(O)O` (stereo not drawn) [Cpd 99], the 50% inhibitory concentration (IC50) stood at 2.96 ± 1.18 µM.

With `CC(C)OC(=O)c1cc2ccccc2cc1NC(=O)C(c1cccc2ccccc12)P(=O)(O)O` (stereo not drawn) [Cpd 139], the IC50 is 8.8 µM.

The molecule `O=C(Nc1cc2ccccc2s1)C(c1cccc2ccccc12)P(=O)(O)O` (stereo not drawn) [Cpd 64] yielded an IC50 of 0.83 ± 0.08 µM.

`O=C(Nc1cc2ccccc2cc1C(=O)N1CCC(c2ccccc2)C1)C(c1cccc2ccccc12)P(=O)(O)O` (stereo not drawn) [Cpd 87] yielded an IC50 of 2.04 µM.

`CP(=O)(O)C(C(=O)N/C=C/c1cccc(OC(F)(F)F)c1)c1csc2ccc(Cl)cc12` (stereo not drawn) [Cpd 153] came in with an IC50 of 0.06 ± 0.01 µM.

`CP(=O)(O)C(C(=O)N/C=C/c1cccc(F)c1)c1csc2ccc(Cl)cc12` (stereo not drawn) [Cpd 15] came in with an IC50 of 0.052 ± 0.015 µM.

The molecule `Cc1ccc2scc(C(C(=O)Nc3ccc4ccccc4c3)P(=O)(O)O)c2c1` (stereo not drawn) [Cpd 5] came in with an IC50 of 0.019 ± 0.005 µM. This IC50 is about 2.7-fold lower than that of the molecule before.

In the case of `O=C(Nc1cc(NC(=O)C(c2cccc3ccccc23)P(=O)(O)O)cc2ccccc12)C1CCN(C(=O)c2ccc3ccccc3c2)CC1` (stereo not drawn) [Cpd 8, [(4-{[1-(Naphthalene-2-carbonyl)-piperidine-4-carbonyl]-amino}-naphthalen-2-ylcarbamoyl)-naphthalen-1-yl-methyl]-phosphonic acid], the midpoint of inhibition, the IC50, lay at 0.021 ± 0.01 µM.

`O=C(Nc1cc2ccccc2cn1)C(c1cccc2ccccc12)P(=O)(O)O` (stereo not drawn) [Cpd 137]: half-maximal inhibition (IC50) was put at 8.66 µM.

For `CP(=O)(O)C(C(=O)N/C=C/c1cccc([N+](=O)[O-])c1)c1csc2ccc(Cl)cc12` (stereo not drawn) [Cpd 166], half-maximal inhibition (IC50) was put at 0.0387 ± 0.02 µM.

With `Nc1ccc(/C=C/NC(=O)C(c2csc3ccc(Cl)cc23)P(=O)(O)O)cc1` (stereo not drawn) [Cpd 12], the midpoint of inhibition, the IC50, lay at 0.038 ± 0.013 µM.

`O=C(NCc1ccccc1)OCc1cc2ccccc2cc1NC(=O)C(c1cccc2ccccc12)P(=O)(O)O` (stereo not drawn) [Cpd 72, [(3-Benzylcarbamoyloxymethyl-naphthalen-2-ylcarbamoyl)-naphthalen-1-yl-methyl]-phosphonic acid] came in with an IC50 of 1.3 ± 0.61 µM.

With `CP(=O)(O)C(C(=O)NC=Cc1ccc(C#N)cc1)c1csc2ccc(Cl)cc12` (stereo not drawn) [Cpd 157], the IC50 was 11 ± 1.2 µM.

`O=C(Nc1cc2ccccc2cc1CNCc1ccccc1)C(c1cccc2ccccc12)P(=O)(O)O` (stereo not drawn) [Cpd 107] yielded an IC50 of 4.3 ± 0.03 µM.

The molecule `O=C(Nc1ccc2ccsc2c1)C(c1cccc2ccccc12)P(=O)(O)O` (stereo not drawn) [Cpd 59] returned an IC50 of 0.635 µM.

Molecule `O=C(Nc1cc2ccccc2cc1CNC1CCCCC1)C(c1cccc2ccccc12)P(=O)(O)O` (stereo not drawn) [Cpd 70, [(3-Cyclohexylaminomethyl-naphthalen-2-ylcarbamoyl)-naphthalen-1-yl-methyl]-phosphonic acid] yielded an IC50 of 0.93 ± 0.07 µM.

The molecule `CP(=O)(O)C(C(=O)NC=Cc1ccc(Cl)cc1)c1csc2ccc(Cl)cc12` (stereo not drawn) [Cpd 78] registered an IC50 of 1.5 ± 0.43 µM.

For the molecule `CP(=O)(O)C(C(=O)N/C=C/c1cccc(N)c1)c1csc2ccc(Cl)cc12` (stereo not drawn) [Cpd 172], the IC50 was 0.041 ± 0.02 µM.

Turning to `COc1ccc(C=CNC(=O)C(c2csc3ccc(Cl)cc23)P(=O)(O)O)cc1OC` (stereo not drawn) [Cpd 49], half-maximal inhibition (IC50) required 0.43 ± 0.09 µM.
